Tests used:
Thromboxane A2 receptor [1] = biological target: T1, Thromboxane A2 receptor (Homo sapiens, UniProt P21731); assay type: functional, cell-based
T1 sequence (P21731 whole entry): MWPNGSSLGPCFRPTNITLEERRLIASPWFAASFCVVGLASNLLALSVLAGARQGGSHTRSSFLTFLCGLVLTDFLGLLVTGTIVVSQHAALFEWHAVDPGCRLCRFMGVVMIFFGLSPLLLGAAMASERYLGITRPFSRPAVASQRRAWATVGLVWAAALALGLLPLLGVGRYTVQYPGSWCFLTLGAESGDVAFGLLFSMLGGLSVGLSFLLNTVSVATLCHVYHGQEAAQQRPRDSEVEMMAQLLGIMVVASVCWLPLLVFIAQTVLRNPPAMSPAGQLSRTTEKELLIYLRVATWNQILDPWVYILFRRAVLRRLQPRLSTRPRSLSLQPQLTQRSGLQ

Estrogen receptor = biological target: T2, Estrogen receptor (Homo sapiens, UniProt P03372)
T2 sequence (P03372 whole entry): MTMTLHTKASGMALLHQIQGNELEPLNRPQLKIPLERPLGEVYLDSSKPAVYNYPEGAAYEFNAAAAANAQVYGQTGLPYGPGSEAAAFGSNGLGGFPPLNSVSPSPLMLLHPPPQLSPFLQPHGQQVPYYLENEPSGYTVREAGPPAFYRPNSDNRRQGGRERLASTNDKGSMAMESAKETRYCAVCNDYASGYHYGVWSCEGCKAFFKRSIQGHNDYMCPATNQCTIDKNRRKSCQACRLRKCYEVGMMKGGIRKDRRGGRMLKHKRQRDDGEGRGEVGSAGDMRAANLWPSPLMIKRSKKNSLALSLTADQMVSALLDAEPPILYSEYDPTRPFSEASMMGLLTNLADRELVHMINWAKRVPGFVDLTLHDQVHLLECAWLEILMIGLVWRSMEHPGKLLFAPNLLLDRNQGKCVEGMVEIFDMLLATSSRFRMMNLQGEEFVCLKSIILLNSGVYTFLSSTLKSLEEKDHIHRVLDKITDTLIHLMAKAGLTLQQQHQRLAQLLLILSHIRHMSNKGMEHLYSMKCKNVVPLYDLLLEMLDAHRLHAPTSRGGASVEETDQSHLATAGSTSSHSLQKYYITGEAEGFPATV

[2] = biological target: cGMP-inhibited 3',5'-cyclic phosphodiesterase 3A (Homo sapiens, UniProt Q14432); assay type: functional
[3] = biological target: T3, Prostaglandin G/H synthase 1 (Homo sapiens, UniProt P23219); assay type: functional
Thromboxane A2 receptor [4] = biological target: T1, Thromboxane A2 receptor; assay type: functional, cell-based; remark: listed apart in the source
[5] = biological target: T3, Prostaglandin G/H synthase 1; assay type: functional; remark: listed apart in the source
[6] = biological target: T4, Alpha-1A adrenergic receptor (Homo sapiens, UniProt P35348); assay type: functional, cell-based
T4 sequence (P35348 whole entry): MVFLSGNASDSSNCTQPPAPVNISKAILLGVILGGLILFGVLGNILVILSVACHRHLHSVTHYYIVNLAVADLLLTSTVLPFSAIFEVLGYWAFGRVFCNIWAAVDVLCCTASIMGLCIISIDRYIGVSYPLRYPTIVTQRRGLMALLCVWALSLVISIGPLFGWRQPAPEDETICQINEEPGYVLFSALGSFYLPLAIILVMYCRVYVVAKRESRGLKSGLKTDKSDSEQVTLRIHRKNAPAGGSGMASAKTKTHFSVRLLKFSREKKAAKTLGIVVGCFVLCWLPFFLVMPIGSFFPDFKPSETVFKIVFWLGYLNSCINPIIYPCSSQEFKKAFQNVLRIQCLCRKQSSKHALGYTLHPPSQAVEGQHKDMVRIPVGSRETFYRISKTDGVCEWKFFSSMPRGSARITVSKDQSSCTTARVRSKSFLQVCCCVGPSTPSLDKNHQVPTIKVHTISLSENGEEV

[7] = biological target: 5-hydroxytryptamine receptor 2B (Homo sapiens, UniProt P41595); assay type: functional, cell-based
Acetylcholinesterase = Acetylcholinesterase (Homo sapiens, UniProt P22303); assay type: functional
[8] = biological target: Sodium-dependent serotonin transporter (Homo sapiens, UniProt P31645)
Progesterone receptor = biological target: T5, Progesterone receptor (Homo sapiens, UniProt P06401)
T5 sequence (P06401 whole entry): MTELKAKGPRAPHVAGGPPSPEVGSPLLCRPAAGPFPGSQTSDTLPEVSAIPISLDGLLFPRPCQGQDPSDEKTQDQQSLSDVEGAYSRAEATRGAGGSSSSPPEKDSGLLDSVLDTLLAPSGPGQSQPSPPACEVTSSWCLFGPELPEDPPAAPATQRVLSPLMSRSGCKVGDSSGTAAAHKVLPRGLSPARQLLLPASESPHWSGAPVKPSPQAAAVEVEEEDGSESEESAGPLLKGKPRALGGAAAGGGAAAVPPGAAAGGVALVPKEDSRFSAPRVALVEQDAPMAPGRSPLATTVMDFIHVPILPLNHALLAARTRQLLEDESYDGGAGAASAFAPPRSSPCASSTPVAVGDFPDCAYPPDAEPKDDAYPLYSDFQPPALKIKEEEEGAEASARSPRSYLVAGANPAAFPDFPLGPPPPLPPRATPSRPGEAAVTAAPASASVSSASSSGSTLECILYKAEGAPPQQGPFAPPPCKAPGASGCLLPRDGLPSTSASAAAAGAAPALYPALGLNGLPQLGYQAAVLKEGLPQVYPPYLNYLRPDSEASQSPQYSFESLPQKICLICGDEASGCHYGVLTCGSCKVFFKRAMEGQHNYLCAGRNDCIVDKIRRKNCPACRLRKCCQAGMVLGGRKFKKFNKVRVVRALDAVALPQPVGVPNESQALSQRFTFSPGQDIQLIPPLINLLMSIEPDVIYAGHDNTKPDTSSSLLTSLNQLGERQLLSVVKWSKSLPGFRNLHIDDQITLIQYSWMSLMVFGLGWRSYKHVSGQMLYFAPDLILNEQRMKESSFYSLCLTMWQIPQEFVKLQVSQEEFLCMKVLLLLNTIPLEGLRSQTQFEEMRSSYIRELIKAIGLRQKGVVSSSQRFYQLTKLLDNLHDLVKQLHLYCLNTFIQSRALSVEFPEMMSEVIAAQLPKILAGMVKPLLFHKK
Note: assay procedure not described here.

Sodium-dependent serotonin transporter, sequence (P31645 whole entry): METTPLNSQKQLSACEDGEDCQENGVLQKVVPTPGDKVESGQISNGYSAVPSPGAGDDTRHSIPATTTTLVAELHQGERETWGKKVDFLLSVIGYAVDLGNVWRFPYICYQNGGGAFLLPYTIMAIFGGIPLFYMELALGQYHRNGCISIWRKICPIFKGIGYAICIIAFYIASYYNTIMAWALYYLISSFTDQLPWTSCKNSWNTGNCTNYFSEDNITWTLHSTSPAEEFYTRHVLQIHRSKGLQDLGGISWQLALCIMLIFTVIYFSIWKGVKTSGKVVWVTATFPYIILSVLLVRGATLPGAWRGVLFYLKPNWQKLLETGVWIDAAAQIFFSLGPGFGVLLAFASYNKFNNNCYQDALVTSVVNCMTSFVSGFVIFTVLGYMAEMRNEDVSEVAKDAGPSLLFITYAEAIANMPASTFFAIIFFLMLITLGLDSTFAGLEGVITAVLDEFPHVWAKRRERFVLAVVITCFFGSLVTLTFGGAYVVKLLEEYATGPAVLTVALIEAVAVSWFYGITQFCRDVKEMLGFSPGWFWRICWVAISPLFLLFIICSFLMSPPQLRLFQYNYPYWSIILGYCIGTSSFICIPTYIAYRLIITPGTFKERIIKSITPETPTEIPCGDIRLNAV
T3 sequence (P23219 whole entry): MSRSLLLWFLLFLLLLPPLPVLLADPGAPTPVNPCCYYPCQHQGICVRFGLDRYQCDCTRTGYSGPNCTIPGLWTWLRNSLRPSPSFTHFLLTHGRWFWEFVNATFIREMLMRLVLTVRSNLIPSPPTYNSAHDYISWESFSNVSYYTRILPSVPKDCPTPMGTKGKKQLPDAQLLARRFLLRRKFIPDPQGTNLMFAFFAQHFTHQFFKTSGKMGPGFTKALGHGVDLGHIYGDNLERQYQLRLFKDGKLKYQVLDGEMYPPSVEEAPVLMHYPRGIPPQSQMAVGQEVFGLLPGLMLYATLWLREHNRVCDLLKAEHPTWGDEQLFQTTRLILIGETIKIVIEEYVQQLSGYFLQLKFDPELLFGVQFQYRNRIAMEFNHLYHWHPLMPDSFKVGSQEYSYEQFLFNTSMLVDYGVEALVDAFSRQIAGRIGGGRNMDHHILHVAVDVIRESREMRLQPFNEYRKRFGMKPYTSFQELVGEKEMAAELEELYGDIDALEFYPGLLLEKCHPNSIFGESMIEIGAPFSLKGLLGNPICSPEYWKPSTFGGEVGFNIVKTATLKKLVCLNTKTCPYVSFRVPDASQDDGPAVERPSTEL
cGMP-inhibited 3',5'-cyclic phosphodiesterase 3A, sequence (Q14432 whole entry): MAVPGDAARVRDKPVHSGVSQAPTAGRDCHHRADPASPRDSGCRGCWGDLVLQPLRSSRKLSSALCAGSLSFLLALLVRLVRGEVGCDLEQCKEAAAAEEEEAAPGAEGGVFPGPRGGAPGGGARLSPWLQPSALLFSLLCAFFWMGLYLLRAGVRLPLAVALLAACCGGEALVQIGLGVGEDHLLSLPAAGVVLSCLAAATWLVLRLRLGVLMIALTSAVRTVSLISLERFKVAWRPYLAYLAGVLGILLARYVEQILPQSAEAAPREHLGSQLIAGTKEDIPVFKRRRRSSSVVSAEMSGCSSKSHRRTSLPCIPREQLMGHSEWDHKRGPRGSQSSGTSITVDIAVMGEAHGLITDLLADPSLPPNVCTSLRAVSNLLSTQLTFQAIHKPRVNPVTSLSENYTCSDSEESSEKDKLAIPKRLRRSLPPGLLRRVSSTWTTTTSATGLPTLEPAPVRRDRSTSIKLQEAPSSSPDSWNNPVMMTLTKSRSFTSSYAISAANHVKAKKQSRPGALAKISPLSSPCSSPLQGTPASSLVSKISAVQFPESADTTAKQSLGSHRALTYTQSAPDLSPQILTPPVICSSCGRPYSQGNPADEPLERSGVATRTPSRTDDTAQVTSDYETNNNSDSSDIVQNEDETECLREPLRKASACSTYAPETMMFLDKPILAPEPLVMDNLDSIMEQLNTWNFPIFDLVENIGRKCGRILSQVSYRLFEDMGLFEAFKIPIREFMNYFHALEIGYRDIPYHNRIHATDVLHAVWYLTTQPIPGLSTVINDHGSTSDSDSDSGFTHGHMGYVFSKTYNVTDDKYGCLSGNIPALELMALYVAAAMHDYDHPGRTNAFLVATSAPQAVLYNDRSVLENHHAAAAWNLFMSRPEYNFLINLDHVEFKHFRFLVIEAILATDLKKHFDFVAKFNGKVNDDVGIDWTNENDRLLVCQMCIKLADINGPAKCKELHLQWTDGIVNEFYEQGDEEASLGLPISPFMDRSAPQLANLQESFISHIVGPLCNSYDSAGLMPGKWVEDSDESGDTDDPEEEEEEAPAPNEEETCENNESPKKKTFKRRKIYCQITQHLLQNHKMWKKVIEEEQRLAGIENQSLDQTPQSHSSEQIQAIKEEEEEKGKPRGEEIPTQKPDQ
Acetylcholinesterase, sequence (P22303 whole entry): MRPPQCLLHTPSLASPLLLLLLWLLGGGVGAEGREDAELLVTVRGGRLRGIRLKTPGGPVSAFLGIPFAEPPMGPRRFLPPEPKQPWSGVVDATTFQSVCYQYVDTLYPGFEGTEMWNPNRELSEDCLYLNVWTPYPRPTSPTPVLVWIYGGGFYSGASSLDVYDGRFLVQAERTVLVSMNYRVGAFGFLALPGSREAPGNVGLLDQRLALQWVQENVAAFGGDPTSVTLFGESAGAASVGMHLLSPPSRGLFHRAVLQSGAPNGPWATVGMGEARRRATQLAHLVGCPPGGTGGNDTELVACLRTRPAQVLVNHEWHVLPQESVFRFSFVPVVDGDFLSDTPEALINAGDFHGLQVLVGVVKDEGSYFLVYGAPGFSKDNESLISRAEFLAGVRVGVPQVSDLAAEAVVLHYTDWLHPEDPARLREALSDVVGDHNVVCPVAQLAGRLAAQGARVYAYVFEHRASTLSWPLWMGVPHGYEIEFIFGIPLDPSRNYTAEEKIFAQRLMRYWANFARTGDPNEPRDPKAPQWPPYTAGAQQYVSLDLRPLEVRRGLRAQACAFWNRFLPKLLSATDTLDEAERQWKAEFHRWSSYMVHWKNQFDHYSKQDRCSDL
5-hydroxytryptamine receptor 2B, sequence (P41595 whole entry): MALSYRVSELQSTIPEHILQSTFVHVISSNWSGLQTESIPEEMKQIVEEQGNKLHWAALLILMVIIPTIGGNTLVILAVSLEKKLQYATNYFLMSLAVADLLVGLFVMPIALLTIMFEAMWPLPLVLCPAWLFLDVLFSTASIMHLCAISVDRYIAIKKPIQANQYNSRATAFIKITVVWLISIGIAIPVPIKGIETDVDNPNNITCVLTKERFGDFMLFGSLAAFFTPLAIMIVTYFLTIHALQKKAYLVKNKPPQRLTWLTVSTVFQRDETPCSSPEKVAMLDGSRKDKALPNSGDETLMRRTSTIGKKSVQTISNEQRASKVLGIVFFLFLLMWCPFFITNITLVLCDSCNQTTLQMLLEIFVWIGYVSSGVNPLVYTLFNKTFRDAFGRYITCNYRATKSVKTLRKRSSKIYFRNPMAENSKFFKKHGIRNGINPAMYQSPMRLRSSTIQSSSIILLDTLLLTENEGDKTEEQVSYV

Row | Compound | AC50 (Thromboxane A2 receptor [1]) [µM] | AC50 (Estrogen receptor) [µM] | AC50 [2] [µM] | AC50 [3] [µM] | AC50 (Thromboxane A2 receptor [4]) [µM] | AC50 [5] [µM] | AC50 [6] [µM] | AC50 [7] [µM] | AC50 (Acetylcholinesterase) [µM] | AC50 [8] [µM] | AC50 (Progesterone receptor) [µM]
1 | CC(=O)OC(C)OC(=O)C(C)c1ccc(-c2ccccc2)c(F)c1 (stereo not given) | > 30 | > 30 | > 30 | 0.0212 | > 30 | 0.0309 | > 30 | > 30 | > 30 | > 30 | 25.4
2 | CNC(=O)C[C@@H](N)C(=O)N[C@@H](C(=O)N[C@@H]1C(=O)N2[C@@H]1SC(C)(C)[C@@H]2C(=O)O)c1ccc(O)cc1 [ASPOXICILLIN] | > 30 | > 30 | > 30 | > 30 | > 30 | > 30 | > 30 | > 30 | > 30 | > 30 | > 30
3 | COC(=O)C1=C(C)NC(C)=C(C(=O)O[C@H]2CCN(Cc3ccccc3)C2)[C@H]1c1cccc([N+](=O)[O-])c1 [BARNIDIPINE] | 4.47 | > 30 | > 30 | > 30 | > 30 | > 30 | 1.31 | > 30 | > 30 | 13.6 | 5.55
4 | Cc1nnc(SCC2=C(C(=O)O)N3C(=O)[C@@H](NC(=O)Cn4cc(Cl)c(=O)c(Cl)c4)[C@H]3SC2)s1 [CEFAZEDONE] | > 30 | > 30 | > 30 | 24.8 | > 30 | 8.23 | > 30 | > 30 | > 30 | > 30 | > 30
5 | CO/N=C(\C(=O)N[C@@H]1C(=O)N2C(C(=O)[O-])=C(C[n+]3cccc4c3CCC4)CS[C@H]12)c1csc(N)n1 [CEFPIROME] | > 30 | > 30 | > 30 | > 30 | > 30 | > 30 | > 30 | > 30 | > 30 | > 30 | > 30
6 | Nc1ncnc(Nc2ccc(Cl)cc2)n1 [CHLORAZANIL] | > 30 | > 30 | > 30 | > 30 | > 30 | > 30 | > 30 | > 30 | > 30 | > 30 | > 30
7 | CCC[C@@H]1C[C@@H](C(=O)N[C@@H]([C@H]2O[C@H](SC)[C@H](OP(=O)(O)O)[C@@H](O)[C@H]2O)[C@H](C)Cl)N(C)C1 [CLINDAMYCIN PHOSPHATE] | > 30 | > 30 | > 30 | > 30 | > 30 | > 30 | > 30 | > 30 | > 30 | > 30 | > 30
8 | C[C@@H]1C[C@H]2[C@@H]3C[C@H](F)C4=CC(=O)C=C[C@]4(C)[C@@]3(Cl)[C@@H](O)C[C@]2(C)[C@H]1C(=O)COC(=O)C(C)(C)C [CLOCORTOLONE PIVALATE] | > 30 | > 30 | > 30 | > 30 | > 30 | > 30 | > 30 | > 30 | > 30 | > 30 | 0.0118
9 | O=P(O)(O)C(Cl)(Cl)P(=O)(O)O [CLODRONIC ACID] | > 30 | > 30 | > 30 | > 30 | > 30 | > 30 | > 30 | > 30 | > 30 | > 30 | > 30
10 | Nc1ccncc1 [DALFAMPRIDINE] | > 30 | > 30 | > 30 | > 30 | > 30 | > 30 | > 30 | > 30 | > 30 | > 30 | > 30
11 | C[C@@H](O)[C@H]1C(=O)N2C(C(=O)O)=C([C@H]3CCCO3)S[C@H]12 [FAROPENEM] | > 30 | > 30 | > 30 | 14.7 | > 30 | 11.4 | > 30 | > 30 | > 30 | > 30 | > 30
12 | CCOC(=O)c1ccc(OC(=O)CCCCCNC(=N)N)cc1 [GABEXATE] | > 30 | > 30 | > 30 | > 30 | > 30 | > 30 | > 30 | > 30 | > 30 | > 30 | > 30
13 | COCCOc1cnc(NS(=O)(=O)c2ccccc2)nc1 [GLYMIDINE] | > 30 | > 30 | > 30 | > 30 | > 30 | > 30 | > 30 | > 30 | > 30 | > 30 | > 30
14 | CCC(=O)O[C@]1(C(=O)COC(C)=O)CC[C@H]2[C@@H]3CCC4=CC(=O)CC[C@]4(C)[C@H]3[C@@H](O)C[C@@]21C [HYDROCORTISONE ACEPONATE] | > 30 | > 30 | > 30 | > 30 | > 30 | > 30 | > 30 | > 30 | > 30 | > 30 | 0.326
15 | O=[N+]([O-])O[C@H]1CO[C@H]2[C@@H]1OC[C@H]2O[N+](=O)[O-] [ISOSORBIDE DINITRATE] | > 30 | > 30 | > 30 | > 30 | > 30 | > 30 | > 30 | > 30 | > 30 | > 30 | > 30
